Numbered stars: 1 amine (or outer) side, 2 acyl side, 3 side chain; on linkers, the order of the positions; unused ones are H or OH. Bridge positions count the residues as written; N and C are the ends. Square brackets hold non-standard residues; d marks the D form. Peptide text beside a SMILES is read from it. Trp(βS-Me,7-OMe) = COc1cccc2c([C@H](C)[C@H](N)C(=O)O)c[nH]c12; Ala(1-bicyclo(1.1.1)pentyl) = N[C@@H](CC12CC(C1)C2)C(=O)O; Phe(4-CH2COOH) = N[C@@H](Cc1ccc(CC(=O)O)cc1)C(=O)O; Trp(7-Cl) = N[C@@H](Cc1c[nH]c2c(Cl)cccc12)C(=O)O; Phe(4-CONH2) = NC(=O)c1ccc(C[C@H](N)C(=O)O)cc1; Phe(4-COOH) = N[C@@H](Cc1ccc(C(=O)O)cc1)C(=O)O; Trp(7-aza) = N[C@@H](Cc1c[nH]c2ncccc12)C(=O)O; Phe(4-CH2NH2) = NCc1ccc(C[C@H](N)C(=O)O)cc1; Trp(1-Me) = Cn1cc(C[C@H](N)C(=O)O)c2ccccc21; Pip(5R-OH) = O=C(O)[C@@H]1CC[C@@H](O)CN1; αMeW = C[C@](N)(Cc1c[nH]c2ccccc12)C(=O)O; X1 = O=C([C@@H]1CC[C@H](N[*:1])C1)[*:2]; 1Nal = N[C@@H](Cc1cccc2ccccc12)C(=O)O; 2Nal = N[C@@H](Cc1ccc2ccccc2c1)C(=O)O; 4Pal = N[C@@H](Cc1ccncc1)C(=O)O; NMeE = CN[C@@H](CCC(=O)O)C(=O)O; NMeDab = CN[C@@H](CCN)C(=O)O; NEtAla = CCN[C@@H](C)C(=O)O; αMeS = C[C@](N)(CO)C(=O)O; NMeA = CN[C@@H](C)C(=O)O; Nle = CCCC[C@H](N)C(=O)O; Sar = CNCC(=O)O
Key:
[1] = biological target: T1, human soluble TNFR1 (sTNFR1) (Homo sapiens, UniProt P19438); experiment: Human sTNFR1-peptide displacement assay (LanthaScreen Eu TR-FRET binding assay)
T1 construct: made in house; host or cells: Sf21 (baculovirus)
T1 sequence (P19438 with tags, fused parts or gaps): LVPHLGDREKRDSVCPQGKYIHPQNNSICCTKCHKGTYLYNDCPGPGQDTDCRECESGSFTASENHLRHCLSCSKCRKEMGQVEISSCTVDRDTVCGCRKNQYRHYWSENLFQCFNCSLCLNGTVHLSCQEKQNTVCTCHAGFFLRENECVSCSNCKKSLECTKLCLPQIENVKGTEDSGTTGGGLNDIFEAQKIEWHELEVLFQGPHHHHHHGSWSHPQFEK
Summary of the method: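 Readout is the 665/615 nm TR-FRET ratio (Eu anti-His donor, streptavidin-Alexa647 acceptor), normalized to DMSO and saturating displacer, fit by Morrison-based five-parameter logistic for Kd^app. His-tagged sTNFR1 (1-211) prebound to 100 nM biotinylated peptide SEQ ID NO.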

[2] = biological target: T2, human TNFR2 ECD protein (Homo sapiens, UniProt P20333); experiment: SPR off-target binding (selectivity) to human TNFR2 ECD
T2 construct: HRV 3C protease cleavage site (C); 6His (C, cleaved yes); made in house; host or cells: Sf21 insect cells (baculovirus), secreted
T2 sequence (P20333 23-257): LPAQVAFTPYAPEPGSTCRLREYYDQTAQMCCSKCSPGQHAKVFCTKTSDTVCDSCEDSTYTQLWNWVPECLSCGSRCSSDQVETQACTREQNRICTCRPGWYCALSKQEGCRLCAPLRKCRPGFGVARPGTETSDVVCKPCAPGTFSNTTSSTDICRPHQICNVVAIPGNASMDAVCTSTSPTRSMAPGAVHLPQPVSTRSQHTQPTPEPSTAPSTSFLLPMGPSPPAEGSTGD
Summary of the method: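 SPR kinetics: peptides over captured avi-biotinylated receptor ECDs, TNFR1 for affinity, TNFR2 run in parallel for off-target binding. Running buffer HEPES pH 7.4 with 150 mM NaCl, 3 mM EDTA, 0.05% P20, 2% DMSO; surface regenerated between analytes. Affinity derived from kon/koff.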

SMILES | IC50 [1] [nM] | Kd [1] [nM] | Kd [2] [nM]
CCCC[C@@H]1NC(=O)CSC[C@@H](C(N)=O)NC(=O)[C@H](Cc2cn(C)c3ccccc23)NC(=O)CN(C)C(=O)[C@H](Cc2ccc(O)cc2)NC(=O)[C@H](Cc2ccc(C(=O)O)cc2)NC(=O)[C@](C)(CO)NC(=O)[C@H](Cc2c[nH]c3c(Cl)cccc23)NC(=O)[C@H](Cc2ccncc2)NC(=O)[C@H](CC(N)=O)NC(=O)[C@H](CCC(=O)O)N(C)C(=O)[C@H](Cc2c[nH]c3ncccc23)NC(=O)[C@H](CO)NC(=O)[C@H](Cc2ccncc2)NC1=O [SEQ ID NO. 223] ({CH2CO}-[Nle][4Pal]S[Trp(7-aza)][NMeE]N[4Pal][Trp(7-Cl)][αMeS][Phe(4-COOH)]Y[Sar][Trp(1-Me)]C-NH2; thioether N-14) | 0.39 | 0.48 | > 1000
CCCC[C@@H]1NC(=O)CSC[C@@H](C(N)=O)NC(=O)[C@](C)(Cc2c[nH]c3ccccc23)NC(=O)CN(C)C(=O)[C@H](Cc2ccc(O)cc2)NC(=O)[C@H](Cc2ccc(CC(=O)O)cc2)NC(=O)[C@](C)(CO)NC(=O)[C@H](Cc2c[nH]c3c(Cl)cccc23)NC(=O)[C@H](Cc2ccncc2)NC(=O)[C@H](CC(N)=O)NC(=O)[C@H](CCC(=O)O)N(C)C(=O)[C@H](Cc2c[nH]c3ncccc23)NC(=O)[C@H](CO)NC(=O)[C@H](Cc2ccc(CN)cc2)NC1=O [SEQ ID NO. 224] ({CH2CO}-[Nle][Phe(4-CH2NH2)]S[Trp(7-aza)][NMeE]N[4Pal][Trp(7-Cl)][αMeS][Phe(4-CH2COOH)]Y[Sar][αMeW]C-NH2; thioether N-14) | 1.7 | – | > 1000
C[C@H]1C(=O)N[C@@H](CC(N)=O)C(=O)N[C@@H](Cc2ccncc2)C(=O)N[C@@H](Cc2ccc3ccccc3c2)C(=O)N[C@@](C)(CO)C(=O)N[C@@H](Cc2ccc(C(=O)O)cc2)C(=O)N[C@@H](Cc2ccc(O)cc2)C(=O)N(C)CC(=O)N[C@@H](Cc2c[nH]c3ccccc23)C(=O)N[C@H](C(N)=O)CSCC(=O)N[C@@H](CCCCN)C(=O)N[C@@H](Cc2ccncc2)C(=O)N[C@@H](CO)C(=O)N[C@@H](Cc2cccc3ccccc23)C(=O)N1C [SEQ ID NO. 227] ({CH2CO}-K[4Pal]S[1Nal][NMeA]N[4Pal][2Nal][αMeS][Phe(4-COOH)]Y[Sar]WC-NH2; thioether N-14) | 4.02 | – | > 1000
CCCC[C@@H]1NC(=O)[C@@H]2CC[C@@H](C2)NC(=O)[C@H]([C@@H](C)c2c[nH]c3c(OC)cccc23)NC(=O)CN(C)C(=O)[C@H](Cc2ccc(C(N)=O)cc2)NC(=O)[C@H](Cc2ccc(C(N)=O)cc2)NC(=O)[C@](C)(CO)NC(=O)[C@H](Cc2c[nH]c3c(Cl)cccc23)NC(=O)[C@H](Cc2ccncc2)NC(=O)[C@H](CC(N)=O)NC(=O)[C@H](CCC(=O)O)N(C)C(=O)[C@H](Cc2c[nH]c3ccccc23)NC(=O)[C@@H]2CC[C@@H](O)CN2C(=O)[C@H](Cc2ccncc2)NC1=O [SEQ ID NO. 229] (cyclo([4Pal][Trp(7-Cl)][αMeS][Phe(4-CONH2)][Phe(4-CONH2)][Sar][Trp(βS-Me,7-OMe)][X1][Nle][4Pal][Pip(5R-OH)]W[NMeE]N)) | – | 0.1 | > 1000
CCCC[C@@H]1NC(=O)CSC[C@@H](C(N)=O)NC(=O)[C@](C)(Cc2c[nH]c3ccccc23)NC(=O)CN(C)C(=O)[C@H](Cc2ccc(O)cc2)NC(=O)[C@H](Cc2ccc(C(=O)O)cc2)NC(=O)[C@](C)(CO)NC(=O)[C@H](Cc2c[nH]c3c(Cl)cccc23)NC(=O)[C@H](Cc2ccncc2)NC(=O)[C@H](CC(N)=O)NC(=O)[C@H](CCC(=O)O)N(C)C(=O)[C@H](Cc2c[nH]c3ncccc23)NC(=O)[C@H](CCN)N(C)C(=O)[C@H](Cc2ccncc2)NC1=O [SEQ ID NO. 231] ({CH2CO}-[Nle][4Pal][NMeDab][Trp(7-aza)][NMeE]N[4Pal][Trp(7-Cl)][αMeS][Phe(4-COOH)]Y[Sar][αMeW]C-NH2; thioether N-14) | 2.63 | – | > 1000
CCN1C(=O)[C@H](Cc2c[nH]c3c(Cl)cccc23)NC(=O)[C@H](CO)NC(=O)[C@H](Cc2ccncc2)NC(=O)[C@H](CC23CC(C2)C3)NC(=O)CSC[C@@H](C(N)=O)NC(=O)[C@H](Cc2c[nH]c3ncccc23)NC(=O)CN(C)C(=O)[C@H](Cc2ccc(O)cc2)NC(=O)[C@H](Cc2ccc(C(=O)O)cc2)NC(=O)[C@](C)(CO)NC(=O)[C@H](Cc2c[nH]c3ncccc23)NC(=O)[C@H](Cc2ccc(C(=O)O)cc2)NC(=O)[C@H](CC(N)=O)NC(=O)[C@@H]1C [SEQ ID NO. 232] ({CH2CO}-[Ala(1-bicyclo(1.1.1)pentyl)][4Pal]S[Trp(7-Cl)][NEtAla]N[Phe(4-COOH)][Trp(7-aza)][αMeS][Phe(4-COOH)]Y[Sar][Trp(7-aza)]C-NH2; thioether N-14) | 3.19 | 2.15 | > 1000

— patent US20240287138A1, “CYCLIC PEPTIDES FOR INHIBITING TNF RECEPTOR 1 ACTIVITY” (Merck Sharp & Dohme LLC, priority 2023, published 2024)
